The source of these data is patent US11970479B2, “3-(1H-pyrazol-4-yl)pyridine allosteric modulators of the M4 muscarinic acetylcholine receptor” (Merck Sharp & Dohme LLC, priority 2018, dated 2024).

Each structure is given as a SMILES string. pEC50: −log10 of the molar value.

In this assay the target is T1, human M4 muscarinic acetylcholine receptor (Homo sapiens, UniProt P08173).
T1 construct: expressed in transfected cells
T1 sequence (P08173 1-479): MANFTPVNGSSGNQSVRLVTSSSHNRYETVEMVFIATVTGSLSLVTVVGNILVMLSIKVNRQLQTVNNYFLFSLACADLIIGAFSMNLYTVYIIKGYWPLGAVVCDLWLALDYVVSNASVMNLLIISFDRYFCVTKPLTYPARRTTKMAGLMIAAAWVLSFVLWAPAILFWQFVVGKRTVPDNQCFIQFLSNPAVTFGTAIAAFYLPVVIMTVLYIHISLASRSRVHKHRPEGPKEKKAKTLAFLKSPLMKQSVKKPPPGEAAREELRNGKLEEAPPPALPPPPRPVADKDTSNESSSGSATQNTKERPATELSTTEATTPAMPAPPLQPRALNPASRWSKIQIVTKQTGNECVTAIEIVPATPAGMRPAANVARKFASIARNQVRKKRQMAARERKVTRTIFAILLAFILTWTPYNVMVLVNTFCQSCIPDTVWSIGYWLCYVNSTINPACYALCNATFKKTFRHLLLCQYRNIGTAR
The experiment in a line: human FLIPR-based M4 PAM assay (CHO-K1 cells with human M4 receptor and Gαqi5, calcium dye fluorescence, EC20 acetylcholine). The class given is cell-based. As to conditions: inflection point (IP) of the dose response curve, human M4 receptor/Gαqi5, acetylcholine at 20% of maximum response, read-out: M4PAM Hu IP. Here is the method: (§1) In a typical experiment the M4 muscarinic acetylcholine receptor modulating activity of the compounds of the present invention was determined in accordance with the following experimental method. CHO-K1 cells stably transfected with human M4 receptor and chimeric G-protein Gαqi5 (Coward P, et al., Analytical Biochemistry, 270:242-248 (1999)) are thawed from liquid N2 storage, resuspended in growth medium, plated in black, clear bottom 384 well plates, and incubated 16-20 hours at 37° C., 5% CO2. On the day of assay, growth medium is removed, the cells are washed 2 times with wash buffer, and cells are incubated in dye loading buffer at 37° C., 5% CO2 for ˜1 hour. Following dye loading the cell plates are placed in a FLIPR Tetra instrument and while monitoring dye fluorescence (excitation […]), 10 uL of test substance at increasing concentrations is added, and fluorescence values are recorded for 4 min. Next, 10 uL of acetylcholine is added (final concentration calculated so as to achieve 20% of the maximum acetycholine response), and the fluorescence reading is continued for 3.5 min. In some cases, a third addition of acetylcholine (final concentration calculated to achieve 70% of the maximal acetylcholine response) is performed. The resulting dose response curves are fit to a 4 parameter logistic equation and the final result is determined as the inflection point (IP) of the curve
as §1, with “CHO-K1” for “In a typical experiment the M4 muscarinic acetylcholine receptor modulating activity of the compounds of the present invention was determined in accordance with the following experimental method. CHO-K1”, “Gαqi5” for “Gαqi5 (Coward P, et al., Analytical Biochemistry, 270:242-248 (1999))”, “performed.” for “performed. The resulting dose response curves are fit to a 4 parameter logistic equation and the final result is determined as the inflection point (IP) of the curve”
`N#Cc1ccc(-c2cnn(CC3(C(F)F)CC3)c2)c(-c2ccc3cccnc3c2)n1` [Example 27, 5-(1-{[1-(difluoromethyl)cyclopropyl]methyl}-1H-pyrazol-4-yl)-6-quinolin-7-ylpyridine-2-carbonitrile]: the pEC50 was 7.48.
As for `COc1cc2ccc(-c3nc(C#N)ccc3-c3cnn(CC4(C(F)F)CC4)c3)cc2nn1` [Example 28, 5-(1-{[1-(difluoromethyl)cyclopropyl]methyl}-1H-pyrazol-4-yl)-6-(3-methoxycinnolin-7-yl)pyridine-2-carbonitrile], the pEC50 was 7.36.
For the compound `N#Cc1ccc(-c2cnn(CC3CC34CC4)c2)c(-c2ccc3cccnc3c2)n1` (centres unmarked) [Example 29, 6-quinolin-7-yl-5-[1-(spiro [2.2]pent-1-ylmethyl)-1H-pyrazol-4-yl]pyridine-2-carbonitrile], the pEC50 is 7.14.
Next, `COc1cc2ccc(-c3nc(Cl)c(C)cc3-c3cnn(CCC(C)(C)OC)c3)cc2nn1` [Example 30, 7-{6-chloro-3-[1-(3-methoxy-3-methylbutyl)-1H-pyrazol-4-yl]-5-methylpyridin-2-yl}-3-methoxycinnoline]: 6.84.
Next, `COc1cc2ccc(-c3nc(Cl)c(C)cc3-c3cnn(CC(C)(C)OC)c3)cc2nn1` [Example 31, 7-{6-chloro-3-[1-(2-methoxy-2-methylpropyl)-1H-pyrazol-4-yl]-5-methylpyridin-2-yl}-3-methoxycinnoline]: 7.12.
For the compound `COc1cc2ccc(-c3nc(C#N)c(C)cc3-c3cnn(CCC(C)(C)OC)c3)cc2nn1` [Example 32, 6-(3-methoxycinnolin-7-yl)-5-[1-(3-methoxy-3-methylbutyl)-1H-pyrazol-4-yl]-3-methylpyridine-2-carbonitrile], the pEC50 is 6.95.
For `COc1cc2ccc(-c3nc(C#N)c(C)cc3-c3cnn(CC(C)(C)OC)c3)cc2nn1` [Example 33, 6-(3-methoxycinnolin-7-yl)-5-[1-(2-methoxy-2-methylpropyl)-1H-pyrazol-4-yl]-3-methylpyridine-2-carbonitrile], the pEC50 is 7.08.
As for `COc1cc2ccc(-c3nc(C)c(C)cc3-c3cnn(CCC(C)(C)OC)c3)cc2nn1` [Example 34, 3-methoxy-7-{3-[1-(3-methoxy-3-methylbutyl)-1H-pyrazol-4-yl]-5,6-dimethylpyridin-2-yl}cinnoline], the pEC50 was 6.85.
On to `COc1cc2ccc(-c3nc(C)c(C)cc3-c3cnn(CC(C)(C)OC)c3)cc2nn1` [Example 35, 3-methoxy-7-{3-[1-(2-methoxy-2-methylpropyl)-1H-pyrazol-4-yl]-5,6-dimethylpyridin-2-yl}cinnoline], for which the pEC50 was 6.73.
`COc1cc2ccc(-c3nc(C)ccc3-c3cnn(CCC(C)(C)F)c3F)cc2nn1` [Example 36, 7-{3-[5-fluoro-1-(3-fluoro-3-methylbutyl)-1H-pyrazol-4-yl]-6-methylpyridin-2-yl}-3-methoxycinnoline]: the pEC50 was 7.85.
In the case of `CC(C)(C)Cn1cc(-c2ccc(C#N)nc2-c2ccc3cccnc3c2)cn1` [Example 37, 5-[1-(2,2-dimethylpropyl)-1H-pyrazol-4-yl]-6-quinolin-7-ylpyridine-2-carbonitrile], the pEC50 was 7.60.
As to `COc1cc2ccc(-c3nc(C#N)ccc3-c3cnn(CC(C)(C)C)c3)cc2nn1` [Example 38, 5-[1-(2,2-dimethylpropyl)-1H-pyrazol-4-yl]-6-(3-methoxycinnolin-7-yl)pyridine-2-carbonitrile], the pEC50 was 7.39.
The same measure for `Cc1ccc2ccc(-c3nc(C#N)ccc3-c3cnn(CC(C)(C)C)c3)cc2n1` [Example 39, 5-[1-(2,2-dimethylpropyl)-1H-pyrazol-4-yl]-6-(2-methylquinolin-7-yl)pyridine-2-carbonitrile]: 7.04; for `CC(C)(C)Cn1cc(-c2ccc(C#N)nc2-c2cnc3cccnc3c2)cn1` [Example 40, 5-[1-(2,2-dimethylpropyl)-1H-pyrazol-4-yl]-6-(1,5-naphthyridin-3-yl)pyridine-2-carbonitrile]: 6.68; for `CC(C)(C)Cn1cc(-c2ccc(C#N)nc2-c2ccc3cc(F)cnc3c2)cn1` [Example 41, 5-[1-(2,2-dimethylpropyl)-1H-pyrazol-4-yl]-6-(3-fluoroquinolin-7-yl)pyridine-2-carbonitrile]: 7.41.
In the case of `CC(C)(C)Cn1cc(-c2ccc(C#N)nc2-c2ccc3cc(Cl)nnc3c2)cn1` [Example 42, 6-(3-chlorocinnolin-7-yl)-5-[1-(2,2-dimethylpropyl)-1H-pyrazol-4-yl]pyridine-2-carbonitrile], the pEC50 was 7.33.
On to `CC(C)(C)Cn1cc(-c2ccc(C#N)nc2-c2ccc3ccnnc3c2)cn1` [Example 43, 6-cinnolin-7-yl-5-[1-(2,2-dimethylpropyl)-1H-pyrazol-4-yl]pyridine-2-carbonitrile], for which the pEC50 is 6.95.
As for `N#Cc1ccc(-c2cnn(CC3(C(F)(F)F)CC3)c2)c(-c2ccc3cccnc3c2)n1` [Example 44, 6-quinolin-7-yl-5-(1-{[1-(trifluoromethyl)cyclopropyl]methyl}-1H-pyrazol-4-yl)pyridine-2-carbonitrile], the pEC50 is 7.21.
The same measure for `COc1cc2ccc(-c3nc(C#N)ccc3-c3cnn(CC4(C(F)(F)F)CC4)c3)cc2nn1` [Example 45, 6-(3-methoxycinnolin-7-yl)-5-(1-{[1-(trifluoromethyl)cyclopropyl]methyl}-1H-pyrazol-4-yl)pyridine-2-carbonitrile]: 7.22; for `CC(C)C(O)Cn1cc(-c2ccc(C#N)nc2-c2ccc3cccnc3c2)cn1` (centres unmarked) [Example 46, 5-[1-(2-hydroxy-3-methylbutyl)-1H-pyrazol-4-yl]-6-quinolin-7-ylpyridine-2-carbonitrile]: 6.77; for `N#Cc1nc(-c2ccc3cccnc3c2)c(-c2cnn(CC3(C(F)(F)F)CC3)c2)cc1F` [Example 47, 3-fluoro-6-quinolin-7-yl-5-(1-{[1-(trifluoromethyl)cyclopropyl]methyl}-1H-pyrazol-4-yl)pyridine-2-carbonitrile]: 7.06.
Turning to `COc1ccc(-c2cnn(CCC(C)C)c2)c(-c2ccc3cccnc3c2)n1` [Example 48, 7-{6-methoxy-3-[1-(3-methylbutyl)-1H-pyrazol-4-yl]pyridine-2-yl}quinoline], the pEC50 is 6.66.
Take `CC(C)CCn1cc(-c2ccc(C(F)(F)F)nc2-c2ccc3cccnc3c2)cn1` [Example 49, 7-{3-[1-(3-methylbutyl)-1H-pyrazol-4-yl]-6-(trifluoromethyl)pyridin-2-yl}quinoline]: the pEC50 is 7.08.
Take `Cc1ccnc(-c2ccc3cccnc3c2)c1-c1cnn(CCC(C)C)c1` [Example 50, 7-{4-methyl-3-[1-(3-methylbutyl)-1H-pyrazol-4-yl]pyridin-2-yl}quinoline]: the pEC50 was 6.73.
In the case of `COc1ccnc(-c2ccc3cccnc3c2)c1-c1cnn(CCC(C)C)c1` [Example 51, 7-{4-methoxy-3-[1-(3-methylbutyl)-1H-pyrazol-4-yl]pyridin-2-yl}quinoline], the pEC50 is 6.38.
Regarding `CC(C)CCn1cc(-c2cc(Cl)cnc2-c2ccc3cccnc3c2)cn1` [Example 52, 7-{5-chloro-3-[1-(3-methylbutyl)-1H-pyrazol-4-yl]pyridin-2-yl}quinoline], the pEC50 was 6.84.
As for `COc1cc2ccc(-c3ncc(Cl)cc3-c3cnn(CCC(C)C)c3)cc2nn1` [Example 53, 7-{5-chloro-3-[1-(3-methylbutyl)-1H-pyrazol-4-yl]pyridin-2-yl}-3-methoxycinnoline], the pEC50 is 6.88.
For `COc1cc2ccc(-c3nc(C(F)F)ccc3-c3cnn(CC(C)(C)C)c3)cc2nn1` [Example 54, 7-{6-(difluoromethyl)-3-[1-(2,2-dimethylpropyl)-1H-pyrazol-4-yl]pyridin-2-yl}-3-methoxycinnoline], the pEC50 is 7.28.
As for `CC(C)(C)Cn1cc(-c2cc(F)cnc2-c2ccc3cccnc3c2)cn1` [Example 55, 7-{3-[1-(2,2-dimethylpropyl)-1H-pyrazol-4-yl]-5-fluoropyridin-2-yl}quinoline], the pEC50 is 6.97.
